Source: patent US9603980B2, “Layer-by-layer stereocomplexed polymers as drug depot carriers or coatings in medical devices” (Cardinal Health Switzerland 515 GmbH, priority 2008, dated 2017)

Key:
[1] = test system: restenosis after coronary angioplasty; assay: MVP randomized clinical trial, angiographic and clinical outcome; assay type: in vivo, human
From the text: In addition, the invention enables the skilled practitioner to use probucol in conjunction with other percutaneous coronary interventions such as stenting if it is deemed appropriate. The present invention concerns the IVUS substudy from the MVP restenosis trial. MVP was a double-blind placebo-controlled randomized clinical trial with four study groups. The protocol was approved by the Montreal Heart Institute institutional review board. The MVP study design, inclusion and exclusion criteria have been previously described (N Engl J Med 1997; 365-372). Briefly, patients referred for elective coronary angioplasty were evaluated at least 30 days prior to their scheduled procedure. Eligible patients were asked to provide written informed consent. Patients were eligible if they were scheduled to undergo standard balloon angioplasty on at least one native coronary artery and had at least one de novo target lesion with luminal narrowing of fifty percent or more by caliper measurements. Beginning thirty days prior to scheduled angioplasty, patients were randomly assigned to receive either probucol alone, multivitamins alone, the combination of probucol and multivitamins, or placebo. Probucol 500 mg or matched placebo was administered twice daily. The multivitamin complex, consisting of vitamin E 700 IU, vitamin C 500 mg and beta-carotene 30,000 IU, or matched placebo was also administered in one tablet twice daily. All patients received an extra dose of probucol 1000 mg and/or vitamin E 2000 IU and/or matched placebos twelve hours before angioplasty, according to randomization assignment. […] Balloon angioplasty was performed according to standard techniques. […] The sequence of contrast injections with the exact degree of angulation was recorded and used for every angiogram. Coronary arteriograms (pre-, post-procedure, and final follow-up) were analyzed together using the Coronary Measurement System (CMS), as previously reported. Patient follow-up included clinical evaluation, exercise treadmill testing, blood chemistry, pill count and drug level measurements, and dietary assessment and intervention. Patients were readmitted for follow-up coronary angiography at five to seven months. Patients in whom arteriography was performed for clinical reasons before the fifth month returned for repeat angiographic examination at five to seven months if no definite angiographic restenosis was present on at least one dilated site. During follow-up, patients with recurrence or exacerbation of anginal symptoms were treated with medical therapy or revascularization procedures (reangioplasty or Coronary Bypass Surgery) as clinically indicated. […]

[2] = test system: tissue hyperplasia and vascular remodeling after coronary angioplasty; assay: IVUS substudy of the MVP restenosis trial; assay type: in vivo, human; details: for Lumen area: Follow-up Post PTCA (change)
From the text: Serial intravascular ultrasound (IVUS) examinations have been performed in a consecutive series of patients involved in the MVP trial. By providing tomographic views of coronary arteries with high resolution, IVUS allows quantitative assessment of changes in arterial lumen and wall dimensions. We were therefore able in this study to determine the pathophysiology of coronary restenosis after balloon angioplasty in patients systematically undergoing follow-up IVUS examination and determine the effect of probucol on tissue hyperplasia and vascular remodeling after coronary angioplasty.
The present invention concerns the IVUS substudy from the MVP restenosis trial. MVP was a double-blind placebo-controlled randomized clinical trial with four study groups. The protocol was approved by the Montreal Heart Institute institutional review board. The MVP study design, inclusion and exclusion criteria have been previously described (N Engl J Med 1997; 365-372). Briefly, patients referred for elective coronary angioplasty were evaluated at least 30 days prior to their scheduled procedure. Eligible patients were asked to provide written informed consent. Patients were eligible if they were scheduled to undergo standard balloon angioplasty on at least one native coronary artery and had at least one de novo target lesion with luminal narrowing of fifty percent or more by caliper measurements.
Beginning thirty days prior to scheduled angioplasty, patients were randomly assigned to receive either probucol alone, multivitamins alone, the combination of probucol and multivitamins, or placebo. Probucol 500 mg or matched placebo was administered twice daily. […] The sequence of contrast injections with the exact degree of angulation was recorded and used for every angiogram. Coronary arteriograms (pre-, post-procedure, and final follow-up) were analyzed together using the Coronary Measurement System (CMS), as previously reported. […] Patients were readmitted for follow-up coronary angiography at five to seven months. […]

LDL = assay: Lag phase for LDL peroxidation ex vivo, diene conjugates after addition of copper ions; design: species or system human; details: treatment for one month; compared with vitamins alone or the combination of probucol and vitamins; preliminary results
[3] = compared to placebo, probucol given alone

Compound: CC(C)(Sc1cc(C(C)(C)C)c(O)c(C(C)(C)C)c1)Sc1cc(C(C)(C)C)c(O)c(C(C)(C)C)c1 [Probucol Alone, 4,4′-([1-methylethylidene)bis(thio)]bis-[2,6-bis(1,1-dimethylethyl)phenol]]
- reduction of the need for repeat angioplasty ([1]; at 6 month, compared to placebo, probucol given alone): fifty-eight
- reduction of angiographic lumen loss [1, 3]: sixty-eight
- reduction of restenosis rate per segment [1, 3]: forty-seven
- patients in whom restenosis still occurred ([1]; patients given probucol alone): over twenty
- Lumen area ([2]; compliant patients only): −0.15 ± 1.70 mm^2
- Lumen area ([2]; per segment): −0.15 ± 1.70 mm^2
- increase in vessel enlargement ([2]; probucol only compared with placebo): seven hundred-thirty
- protection against LDL oxidation (LDL): significantly greater protection
